In patent publication US10874856B2, “Device for treating a cutaneous ulcer” (priority 2013, dated 2020):

Columns and labels:
[1] = tested on: Raynaud's attacks and ulcers; conditions: intravenous, versus placebo; cited from earlier work
[2] = tested on: skin blood flow; test: Continuous cathodal iontophoresis on the forearm of healthy volunteers, skin blood flow by laser Doppler imaging; type: in vivo, human; conditions: 250 μM treprostinil, cathodal iontophoresis 20 minutes
Procedure: A clinical study then included 20 healthy volunteers. These subjects received 3 concentrations of treprostinil via continuous cathodal iontophoresis on the forearm for 20 minutes and a control iontophoresis of 0.9% NaCl. Skin blood flow was quantified by laser Doppler imaging.
This effect is expressed as cutaneous vascular conductance (CVC; percentage of the baseline) recorded up to 24 hours.
To implement iontophoresis on the forearm, several iontophoresis chambers containing treprostinil liquid solution in contact with a cathode, and an anode at a distance of about 15 cm from the cathode, are placed on the inside of the forearm of each patient. […] Treprostinil liquid solution was in direct contact with the subject's skin.

[3] = Treprostinil quantification in dermal dialysate fluid (microdialysis, HPLC-MS/MS), forearm; type: in vivo, human; conditions: post-iontophoresis
Description: The use of treprostinil to impregnate a primary dressing has the advantage of making it possible to cover larger areas of skin. However, it was not obvious that the results obtained by iontophoresis of treprostinil in liquid solution form in direct contact with the patient's skin could be obtained with the embodiment in accordance with the invention.

[4] = Treprostinil plasma assay (HPLC-MS/MS) after iontophoresis on forearm and fingers; type: in vivo, human; conditions: after iontophoresis for 20 minutes on the forearm and for 2 hours on the fingers
Procedure: However, the fact that the patient's skin is in extended contact with an active substance is likely to involve the systemic passage of treprostinil. The Inventors thus assayed treprostinil in the plasma using high-performance liquid chromatography coupled to tandem mass spectrometry after iontophoresis for 20 minutes on the forearm and for 2 hours on the fingers.

[5] = tested on: blood flow in the pad of the finger; test: Iontophoresis of treprostinil impregnating a primary dressing on the finger pad, laser speckle contrast imaging of blood flow; type: in vivo, human
Procedure: FIG. 3 reproduces an image obtained by laser speckle contrast imaging of blood flow in the pad of the index finger treated by iontophoresis of treprostinil impregnating a primary dressing and in the pad of the middle finger of the same hand treated by iontophoresis of 0.9% NaCl impregnating another primary dressing, in a healthy subject. The iontophoresis was carried out under the following conditions: 240 mC/cm^2, direct current. Two 7.2 cm^2 Ag—AgCl electrodes (Iogel, Iomed Inc., Salt Lake City, Utah, USA) were soaked in 1.5 ml of treprostinil or NaCl solution (double-blind).
These drug-soaked electrodes were connected to the cathode, while the anode was connected to passive electrodes attached at a distance of 10 cm. Low-voltage computer-controlled generators were used (PF 751 Perilont USB Power Supply, Perimed, Järfálla, Sweden). The voltage was recorded continuously in order to estimate the skin's resistance.
FIG. 4 reproduces an image obtained by laser speckle contrast imaging of blood flow in the pad of a ring finger treated by iontophoresis of treprostinil impregnating a primary dressing and in the pad of the middle finger of the same hand treated by iontophoresis of 0.9% NaCl, in a subject with scleroderma. The variation in blood flow is represented in same manner as in FIG. 3.

[6] = Plasma treprostinil concentration in scleroderma patients post-iontophoresis; type: in vivo; conditions: human, other: cathodal iontophoresis, 250 μM, 30 minutes post-iontophoresis
[7] = tested on: skin blood flow; conditions: rat
[8] = tested on: skin blood flow; conditions: 12 scleroderma patients, 250 μM, direct current, 240 mC/cm^2
[9] = tested on: digital ulcers; conditions: cited from earlier work

SMILES: CC#CCC(C)[C@H](O)/C=C/[C@@H]1[C@H]2C/C(=C/CCCC(=O)O)C[C@H]2C[C@H]1O (stereo partly drawn) [iloprost]
- frequency of Raynaud's attacks and healing time of ulcers [1]: provided an advantage

SMILES: CCCCC[C@H](O)CC[C@@H]1[C@H]2Cc3cccc(OCC(=O)O)c3C[C@H]2C[C@H]1O [treprostinil]
- cutaneous vascular conductance AUC80 min [2]: 31,897±24,390 % BL·min
- time treprostinil present in the dermis of the forearm (average) [3]: up to 8 hours
- systemic passage (plasma quantification) [4]: negligible systemic passage
- vasomotor effect on finger pad, healthy subject (FIG. 3) ([5]; healthy subject, index finger, 240 mC/cm^2, direct current): marked vasomotor effect
- vasomotor effect on finger pad, subject with scleroderma (FIG. 4) ([5]; subject with scleroderma, ring finger): marked vasomotor effect
- concentration at 30 min [6]: < 1.8 pg/mL
- cutaneous vasodilatation ([7]; 20 minutes of cathodal iontophoresis at 100 μA, liquid solution in direct contact with skin): caused cutaneous vasodilatation
- persistence of effect after iontophoresis is over ([7]; cathodal iontophoresis): at least 60 minutes
- local toxicity, clinically and after systematic skin biopsies ([7]; in vivo): No sign of local toxicity
- effect on skin blood flow absent current or with anodal current ([7]; no current or anodal current): no effect on skin blood flow
- skin blood flow [8]: increase in skin blood flow
- tolerance [8]: well tolerated

SMILES: COc1ccccc1Oc1c(NS(=O)(=O)c2ccc(C(C)(C)C)cc2)nc(-c2ncccn2)nc1OCCO [bosentan]
- risk of developing new ulcers ([9]; RAPIDS-2 study): significantly reduced the risk
- healing of preexisting ulcers ([9]; in vivo): no advantage
